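Method: 48-hour compound exposure of cells in 96-well plates, five concentrations, linear interpolation of endpoints. At the TGI there is no net growth.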
Experiments:
P388 leukemia = assay: NCI tumour cell line growth inhibition, 48 h
P388/ADR leukemia = assay: NCI tumour cell line growth inhibition, 48 h

COC(=O)C[C@](O)(CCCC(C)(C)O)C(=O)O[C@@H]1C(OC)=C[C@]23CCCN2CCc2cc4c(cc2[C@H]13)OCO4
TGI (P388 leukemia): 10.1 nM | TGI (P388/ADR leukemia): 1350 nM

COc1cccc2c1C(=O)c1c(O)c3c(c(O)c1C2=O)C[C@@](O)(C(=O)CO)C[C@@H]3OC1CC(N)CC(C)O1 (some centres undefined)
TGI (P388 leukemia): 588 nM | TGI (P388/ADR leukemia): 2960 nM
